For data set [1], the system named is mouse fibroblasts cells L-929. Particulars: alone or in mixtures at the concentrations found in PD fluids; cited from earlier work.
Data set [2] can be described thus: Biological effects of 3,4-dideoxy-glucosone-3-ene (test not specified).
Data set [3] deals with mouse fibroblasts cells L-929. Kind of data set: In vitro assay for cytotoxicity: inhibition of cell growth (ICG). Type of data set: cell-based. On the procedure: Carbohydrate containing medical solutions used for peritoneal dialysis were mixed with 1 part of a cell growth medium and 10% (volume/volume) fetal calf serum was added (Wieslander et al., 1991, Kidney Int. 40:77-79). The basal cytotoxicity of the medical solution used for peritoneal dialysis was determined on mouse fibroblasts cells L-929 (CCL-1; ATTC, Rockville, Md., USA) as described earlier (Wieslander et al. 1993, Advances in Peritoneal Dialys, 9:31-35) and expressed as inhibition of cell growth (ICG).
Mouse fibroblast cells (L-929) were grown and incubated according to Järkelid et al., 2000, ATLA 28, 415-425. Inhibition of cell growth was determined for a 4% PD fluid with the following composition
Additionally dose response curves were made in MEM (Minimal Essential Medium).
The results from incubation of L-929 cells with synthetic 3,4-dideoxy-glucosone-3-ene added in MEM are presented in table 1 below showing the values plotted in FIG. 5. The 4% PD solution was autoclaved while the PD fluid was sterile filtered. The PD solutions were tested twice (% ICG1 and % ICG2) and the mean ICG was calculated.

On to `O=CC(=O)C[C@H](O)[C@H](O)CO` [3-deoxyglucosone], for which the “toxicity in the L-929 system” value in data set [1] was “None of these five listed compounds show toxicity”.
For `C=O` [formaldehyde], the “toxicity in the L-929 system” value in data set [1] was “None of these five listed compounds show toxicity”.
As to `O=CC=O` [glyoxal], the “toxicity in the L-929 system” value in data set [1] is “None of these five listed compounds show toxicity”.
As to `CC=O` [acetaldehyde], the “toxicity in the L-929 system” value in data set [1] is reported as “None of these five listed compounds show toxicity”.
For orientation: EC50 means the midpoint of the concentration-response curve. Low readings indicate higher potency in that assay, high ones lower potency in that assay. 3,4-dideoxy-glucosone-3-ene [3,4-DGE]: the “concentration below which no biological effects seem to be present” value in data set [2] is recorded as below 2 μM. For the same compound, the “% ICG1” value in data set [3] (5 μM 3,4-DGE in MEM) worked out at 24%; in data set [3] (15 μM 3,4-DGE in MEM), 47%; in data set [3] (52 μM 3,4-DGE in MEM) it was 92%; in data set [3] (10,4 μM 3,4-DGE in MEM) it was 36%; in data set [3] (24,3 μM 3,4-DGE in MEM) it was 63%. For the same compound, the “% ICG2” value turned out to be 12% in data set [3] (5 μM 3,4-DGE in MEM); 49% in data set [3] (15 μM 3,4-DGE in MEM); 80% in data set [3] (52 μM 3,4-DGE in MEM); 5% in data set [3] (2,5 μM 3,4-DGE in MEM); 51% in data set [3] (10,4 μM 3,4-DGE in MEM); 65% in data set [3] (24,3 μM 3,4-DGE in MEM). For the same compound, the “% ICG3” value in data set [3] (5 μM 3,4-DGE in MEM) is reported as 31%; in data set [3] (15 μM 3,4-DGE in MEM) it was 44%; in data set [3] (52 μM 3,4-DGE in MEM) it was 88%; in data set [3] (2,5 μM 3,4-DGE in MEM), 20%; in data set [3] (10,4 μM 3,4-DGE in MEM), 42%; in data set [3] (24,3 μM 3,4-DGE in MEM) it was 58%. Further, the “mean % ICG” value was 21,5% in data set [3] (5 μM 3,4-DGE in MEM); 46,5% in data set [3] (15 μM 3,4-DGE in MEM); 84% in data set [3] (52 μM 3,4-DGE in MEM); 12,5% in data set [3] (2,5 μM 3,4-DGE in MEM); 46,5% in data set [3] (10,4 μM 3,4-DGE in MEM); 61,5% in data set [3] (24,3 μM 3,4-DGE in MEM). The compound also displayed an EC50 in data set [3] (dose response curves in MEM, L-929 cells) of 16 µM. Also, in data set [3] (fibroblast cells), the “toxicity in cytotoxicity test” value is reported as “toxic to fibroblast cells”.

(Values after patent US20040101544A1, “Method for detoxifying a carbohydrate containing solution” (priority 2000, published 2004).)
